Measured values: the NIST ThermoML archive (doi:10.1021/acs.jced.7b00106)
Values joined by “and” are separate entries in the source; they are usually repeats but may differ in a detail not shown here. Identical values can stand only once. ± gives the expanded uncertainty stated by the source.

Conditions: Hot wire method

FC(F)(F)/C=C/Cl [(E)-1-chloro-3,3,3-trifluoroprop-1-ene]
Conditions	thermal conductivity
362.89 K, 26388 kPa, Liquid	0.07962 ± 0.0015 W/m/K
362.94 K, 8395 kPa, Liquid	0.06981 ± 0.0008 W/m/K
362.97 K, 8410 kPa, Liquid	0.06989 ± 0.0011 W/m/K
363.01 K, 5513 kPa, Liquid	0.06793 ± 0.00082 W/m/K
363.02 K, 5522 kPa, Liquid	0.06801 ± 0.0012 W/m/K
363.04 K, 15375 kPa, Liquid	0.07401 ± 0.0027 W/m/K
363.05 K, 588 kPa, Fluid (supercritical or subcritical phases)	0.01642 ± 0.0023 W/m/K
363.05 K, 3030 kPa, Liquid	0.06616 ± 0.0009 W/m/K
363.06 K, 3018 kPa, Liquid	0.06615 ± 0.0015 W/m/K
363.06 K, 18623 kPa, Liquid	0.07592 ± 0.0017 W/m/K
363.07 K, 781 kPa, Liquid	0.06438 ± 0.00097 W/m/K
363.07 K, 11657 kPa, Liquid	0.07182 ± 0.0013 W/m/K
363.07 K, 11679 kPa, Liquid	0.07186 ± 0.0013 W/m/K
363.07 K, 15350 kPa, Liquid	0.07393 ± 0.0024 W/m/K
363.07 K, 18631 kPa, Liquid	0.07609 ± 0.0013 W/m/K
363.08 K, 794 kPa, Liquid	0.06441 ± 0.0012 W/m/K
363.17 K, 485 kPa, Fluid (supercritical or subcritical phases)	0.01636 ± 0.0022 W/m/K
363.25 K, 8386 kPa, Liquid	0.0699 ± 0.0015 W/m/K
363.25 K, 8410 kPa, Liquid	0.06983 ± 0.0032 W/m/K
363.28 K, 18567 kPa, Liquid	0.07546 ± 0.003 W/m/K
363.3 K, 5515 kPa, Liquid	0.0679 ± 0.0013 W/m/K
363.3 K, 15333 kPa, Liquid	0.0739 ± 0.0039 W/m/K
363.3 K, 18619 kPa, Liquid	0.07574 ± 0.0018 W/m/K
363.31 K, 369 kPa, Fluid (supercritical or subcritical phases)	0.01625 ± 0.0013 W/m/K
363.31 K, 5517 kPa, Liquid	0.06789 ± 0.0032 W/m/K
363.32 K, 15362 kPa, Liquid	0.07394 ± 0.0033 W/m/K
363.34 K, 11659 kPa, Liquid	0.07179 ± 0.0018 W/m/K
363.35 K, 3013 kPa, Liquid	0.06606 ± 0.0028 W/m/K
363.35 K, 11674 kPa, Liquid	0.07181 ± 0.0022 W/m/K
363.36 K, 3021 kPa, Liquid	0.06613 ± 0.0022 W/m/K
363.38 K, 789 kPa, Liquid	0.06433 ± 0.002 W/m/K
363.39 K, 791 kPa, Liquid	0.06436 ± 0.0013 W/m/K
363.56 K, 18588 kPa, Liquid	0.07568 ± 0.00091 W/m/K
363.56 K, 18589 kPa, Liquid	0.07561 ± 0.00085 W/m/K
363.85 K, 18555 kPa, Liquid	0.07553 ± 0.00086 W/m/K
363.86 K, 18574 kPa, Liquid	0.07558 ± 0.00084 W/m/K
381.79 K, 728 kPa, Fluid (supercritical or subcritical phases)	0.01756 ± 0.0014 W/m/K
381.91 K, 529 kPa, Fluid (supercritical or subcritical phases)	0.01757 ± 0.0026 W/m/K
381.98 K, 885 kPa, Fluid (supercritical or subcritical phases)	0.0177 ± 0.0023 W/m/K
381.99 K, 883 kPa, Fluid (supercritical or subcritical phases)	0.01771 ± 0.0016 W/m/K
382.06 K, 727 kPa, Fluid (supercritical or subcritical phases)	0.0176 ± 0.0018 W/m/K
382.19 K, 530 kPa, Fluid (supercritical or subcritical phases)	0.01766 ± 0.0017 W/m/K
382.26 K, 884 kPa, Fluid (supercritical or subcritical phases)	0.01776 ± 0.0021 W/m/K
382.27 K, 885 kPa, Fluid (supercritical or subcritical phases)	0.01778 ± 0.002 W/m/K
382.29 K, 1304 kPa, Liquid	0.05933 ± 0.002 W/m/K
382.3 K, 1303 kPa, Liquid	0.0594 ± 0.0011 W/m/K
382.3 K, 7889 kPa, Liquid	0.06498 ± 0.00074 W/m/K
382.3 K, 7898 kPa, Liquid	0.065 ± 0.00098 W/m/K
382.32 K, 1195 kPa, Fluid (supercritical or subcritical phases)	0.01851 ± 0.0019 W/m/K
382.32 K, 1196 kPa, Fluid (supercritical or subcritical phases)	0.01849 ± 0.0026 W/m/K
382.35 K, 727 kPa, Fluid (supercritical or subcritical phases)	0.01767 ± 0.0016 W/m/K
382.35 K, 20108 kPa, Liquid	0.07266 ± 0.0016 W/m/K
382.36 K, 20093 kPa, Liquid	0.07261 ± 0.0013 W/m/K
382.37 K, 6276 kPa, Liquid	0.06375 ± 0.00084 W/m/K
382.38 K, 6283 kPa, Liquid	0.06377 ± 0.00092 W/m/K
382.38 K, 35584 kPa, Liquid	0.0803 ± 0.0042 W/m/K
382.39 K, 35567 kPa, Liquid	0.08024 ± 0.011 W/m/K
382.4 K, 16804 kPa, Liquid	0.07075 ± 0.00085 W/m/K
382.41 K, 16825 kPa, Liquid	0.07099 ± 0.002 W/m/K
382.42 K, 33043 kPa, Liquid	0.07905 ± 0.00091 W/m/K
382.42 K, 33046 kPa, Liquid	0.07909 ± 0.0009 W/m/K
382.44 K, 13721 kPa, Liquid	0.06888 ± 0.0021 W/m/K
382.45 K, 13744 kPa, Liquid	0.06889 ± 0.0017 W/m/K
382.46 K, 28331 kPa, Liquid	0.07696 ± 0.0058 W/m/K
382.47 K, 4293 kPa, Liquid	0.06211 ± 0.0011 W/m/K
382.47 K, 28334 kPa, Liquid	0.07681 ± 0.0012 W/m/K
382.48 K, 1001 kPa, Fluid (supercritical or subcritical phases)	0.01789 ± 0.0088 W/m/K
382.48 K, 4301 kPa, Liquid	0.06219 ± 0.0015 W/m/K
382.49 K, 529 kPa, Fluid (supercritical or subcritical phases)	0.01769 ± 0.00074 W/m/K
382.49 K, 1000 kPa, Fluid (supercritical or subcritical phases)	0.01794 ± 0.0032 W/m/K
382.5 K, 2615 kPa, Liquid	0.06083 ± 0.0011 W/m/K
382.51 K, 2614 kPa, Liquid	0.06065 ± 0.0015 W/m/K
382.51 K, 10968 kPa, Liquid	0.06711 ± 0.0013 W/m/K
382.51 K, 10976 kPa, Liquid	0.0674 ± 0.0025 W/m/K
382.53 K, 24122 kPa, Liquid	0.07474 ± 0.0025 W/m/K
382.54 K, 24143 kPa, Liquid	0.07473 ± 0.0071 W/m/K
382.55 K, 1308 kPa, Liquid	0.0594 ± 0.0013 W/m/K
382.56 K, 884 kPa, Fluid (supercritical or subcritical phases)	0.01781 ± 0.0024 W/m/K and 0.01779 ± 0.0024 W/m/K
382.56 K, 1302 kPa, Liquid	0.05937 ± 0.0012 W/m/K
382.56 K, 7890 kPa, Liquid	0.06497 ± 0.002 W/m/K
382.56 K, 7897 kPa, Liquid	0.06497 ± 0.001 W/m/K
382.56 K, 8382 kPa, Liquid	0.06533 ± 0.0054 W/m/K
382.56 K, 8389 kPa, Liquid	0.06536 ± 0.0047 W/m/K
382.58 K, 20086 kPa, Liquid	0.07258 ± 0.0011 W/m/K
382.58 K, 20109 kPa, Liquid	0.07262 ± 0.0016 W/m/K
382.6 K, 1196 kPa, Fluid (supercritical or subcritical phases)	0.01858 ± 0.0032 W/m/K
382.61 K, 1196 kPa, Fluid (supercritical or subcritical phases)	0.01858 ± 0.0032 W/m/K
382.62 K, 35572 kPa, Liquid	0.07991 ± 0.0018 W/m/K
382.63 K, 6276 kPa, Liquid	0.06372 ± 0.00084 W/m/K
382.63 K, 35594 kPa, Liquid	0.08017 ± 0.0029 W/m/K
382.64 K, 727 kPa, Fluid (supercritical or subcritical phases)	0.01771 ± 0.0015 W/m/K
382.64 K, 6276 kPa, Liquid	0.06375 ± 0.00084 W/m/K
382.65 K, 16810 kPa, Liquid	0.07072 ± 0.00099 W/m/K
382.65 K, 33011 kPa, Liquid	0.079 ± 0.0025 W/m/K
382.66 K, 16821 kPa, Liquid	0.07073 ± 0.0042 W/m/K
382.66 K, 33037 kPa, Liquid	0.07905 ± 0.0011 W/m/K
382.7 K, 13733 kPa, Liquid	0.0689 ± 0.0008 W/m/K
382.71 K, 13730 kPa, Liquid	0.06888 ± 0.00081 W/m/K
382.71 K, 28321 kPa, Liquid	0.07678 ± 0.0027 W/m/K
382.71 K, 28350 kPa, Liquid	0.07685 ± 0.00091 W/m/K
382.72 K, 4298 kPa, Liquid	0.06213 ± 0.0013 W/m/K
382.74 K, 4301 kPa, Liquid	0.06214 ± 0.0013 W/m/K
382.77 K, 2602 kPa, Liquid	0.06057 ± 0.0007 W/m/K
382.77 K, 2621 kPa, Liquid	0.06066 ± 0.0014 W/m/K
382.77 K, 10954 kPa, Liquid	0.06703 ± 0.0015 W/m/K
382.77 K, 24142 kPa, Liquid	0.07452 ± 0.0011 W/m/K
382.78 K, 1001 kPa, Fluid (supercritical or subcritical phases)	0.01826 ± 0.0046 W/m/K
382.78 K, 24124 kPa, Liquid	0.07466 ± 0.0014 W/m/K
382.79 K, 1000 kPa, Fluid (supercritical or subcritical phases)	0.0181 ± 0.0042 W/m/K
382.79 K, 10954 kPa, Liquid	0.06707 ± 0.0015 W/m/K
382.81 K, 530 kPa, Fluid (supercritical or subcritical phases)	0.01767 ± 0.00088 W/m/K
382.82 K, 7886 kPa, Liquid	0.06511 ± 0.0016 W/m/K
382.83 K, 1306 kPa, Liquid	0.05933 ± 0.00067 W/m/K
382.83 K, 8368 kPa, Liquid	0.06524 ± 0.0012 W/m/K
382.83 K, 8383 kPa, Liquid	0.06552 ± 0.0011 W/m/K
382.84 K, 1310 kPa, Liquid	0.05941 ± 0.0008 W/m/K
382.84 K, 7894 kPa, Liquid	0.06495 ± 0.00099 W/m/K
382.84 K, 20089 kPa, Liquid	0.07256 ± 0.0016 W/m/K
382.85 K, 20100 kPa, Liquid	0.07257 ± 0.0019 W/m/K
382.87 K, 883 kPa, Fluid (supercritical or subcritical phases)	0.01794 ± 0.0024 W/m/K
382.87 K, 885 kPa, Fluid (supercritical or subcritical phases)	0.01792 ± 0.0028 W/m/K
382.87 K, 35575 kPa, Liquid	0.08013 ± 0.0029 W/m/K
382.87 K, 35578 kPa, Liquid	0.08012 ± 0.0029 W/m/K
382.91 K, 1197 kPa, Fluid (supercritical or subcritical phases)	0.01873 ± 0.0041 W/m/K
382.91 K, 6263 kPa, Liquid	0.06365 ± 0.0026 W/m/K
382.91 K, 6280 kPa, Liquid	0.06372 ± 0.0026 W/m/K
382.91 K, 33006 kPa, Liquid	0.07896 ± 0.0014 W/m/K
382.91 K, 33028 kPa, Liquid	0.07899 ± 0.0013 W/m/K
382.92 K, 16811 kPa, Liquid	0.07071 ± 0.0012 W/m/K
382.92 K, 16817 kPa, Liquid	0.0707 ± 0.0012 W/m/K
382.96 K, 28308 kPa, Liquid	0.07685 ± 0.0012 W/m/K
382.97 K, 727 kPa, Fluid (supercritical or subcritical phases)	0.01778 ± 0.0018 W/m/K
382.97 K, 28333 kPa, Liquid	0.07679 ± 0.0011 W/m/K
382.98 K, 13709 kPa, Liquid	0.06879 ± 0.0013 W/m/K
382.98 K, 13730 kPa, Liquid	0.06887 ± 0.0013 W/m/K
383 K, 4290 kPa, Liquid	0.06207 ± 0.00079 W/m/K
383.01 K, 4292 kPa, Liquid	0.0621 ± 0.00084 W/m/K
383.03 K, 24102 kPa, Liquid	0.07464 ± 0.00093 W/m/K
383.04 K, 24119 kPa, Liquid	0.07466 ± 0.00093 W/m/K
383.05 K, 10954 kPa, Liquid	0.06701 ± 0.00095 W/m/K
383.06 K, 2617 kPa, Liquid	0.06075 ± 0.00083 W/m/K
383.06 K, 10970 kPa, Liquid	0.06706 ± 0.00095 W/m/K
383.07 K, 2612 kPa, Liquid	0.06066 ± 0.0012 W/m/K
383.08 K, 1001 kPa, Fluid (supercritical or subcritical phases)	0.01823 ± 0.0013 W/m/K
383.08 K, 1002 kPa, Fluid (supercritical or subcritical phases)	0.01821 ± 0.0014 W/m/K
